Laboratory results from ChEMBL document CHEMBL1130489, “Synthesis and anti-HIV activity of some new aminoadamantane heterocycles” (Bioorg Med Chem Lett, 1997).

These compounds were tested on MT4 (assay: Concentration required to protect MT-4 cells against the cytopathogenicity of HIV-1 (IIIB/LAI)). Conditions: Homo sapiens.
Type: functional, cell-based

Compound	EC50
C1CCN(CCN2CCCCC2C23CC4CC(CC(C4)C2)C3)CC1 (configuration not stated)	3.6 µM
S=C(Nc1ccc(Cl)cc1Cl)N1CCCCC1C12CC3CC(CC(C3)C1)C2 (configuration not stated)	> 19 µM
C1CCC(C23CC4CC(CC(C4)C2)C3)NC1 (configuration not stated)	> 403 µM
CN(C)CCN1CCCCC1C12CC3CC(CC(C3)C1)C2 (configuration not stated)	40.8 µM
CN1CCCCC1C12CC3CC(CC(C3)C1)C2 (configuration not stated)	> 415 µM
O=C(Nc1ccc(Cl)cc1)N1CCCCC1C12CC3CC(CC(C3)C1)C2 (configuration not stated)	> 13 µM
CCN1CCCCC1C12CC3CC(CC(C3)C1)C2 (configuration not stated)	> 419 µM
c1ccc(CN2CCCCC2C23CC4CC(CC(C4)C2)C3)cc1 (configuration not stated)	> 64 µM
C1CCN(CC2CC2)C(C23CC4CC(CC(C4)C2)C3)C1 (configuration not stated)	75.2 µM

These compounds were tested on MT4 (assay: Cytotoxic concentration required to reduce the viability of MT-4 cells by 50%). Conditions: Homo sapiens.
Type: functional

Compound	CC50
C1CCN(CCN2CCCCC2C23CC4CC(CC(C4)C2)C3)CC1 (configuration not stated)	52.6 µM
S=C(Nc1ccc(Cl)cc1Cl)N1CCCCC1C12CC3CC(CC(C3)C1)C2 (configuration not stated)	17.7 µM
C1CCC(C23CC4CC(CC(C4)C2)C3)NC1 (configuration not stated)	403 µM
CN(C)CCN1CCCCC1C12CC3CC(CC(C3)C1)C2 (configuration not stated)	274 µM
CN1CCCCC1C12CC3CC(CC(C3)C1)C2 (configuration not stated)	413 µM
O=C(Nc1ccc(Cl)cc1)N1CCCCC1C12CC3CC(CC(C3)C1)C2 (configuration not stated)	12.6 µM
CCN1CCCCC1C12CC3CC(CC(C3)C1)C2 (configuration not stated)	417 µM
c1ccc(CN2CCCCC2C23CC4CC(CC(C4)C2)C3)cc1 (configuration not stated)	62.7 µM
C1CCN(CC2CC2)C(C23CC4CC(CC(C4)C2)C3)C1 (configuration not stated)	263 µM

Each compound was assayed on MT4 (assay: Concentration required to protect MT-4 cells against the cytopathogenicity of HIV-2 (ROD)). Conditions: Homo sapiens.
Type: functional, cell-based

Compound	EC50
C1CCN(CCN2CCCCC2C23CC4CC(CC(C4)C2)C3)CC1 (configuration not stated)	> 54 µM
S=C(Nc1ccc(Cl)cc1Cl)N1CCCCC1C12CC3CC(CC(C3)C1)C2 (configuration not stated)	> 19 µM
C1CCC(C23CC4CC(CC(C4)C2)C3)NC1 (configuration not stated)	> 403 µM
CN(C)CCN1CCCCC1C12CC3CC(CC(C3)C1)C2 (configuration not stated)	> 276 µM
CN1CCCCC1C12CC3CC(CC(C3)C1)C2 (configuration not stated)	> 415 µM
O=C(Nc1ccc(Cl)cc1)N1CCCCC1C12CC3CC(CC(C3)C1)C2 (configuration not stated)	> 13 µM
CCN1CCCCC1C12CC3CC(CC(C3)C1)C2 (configuration not stated)	> 419 µM
c1ccc(CN2CCCCC2C23CC4CC(CC(C4)C2)C3)cc1 (configuration not stated)	> 64 µM
C1CCN(CC2CC2)C(C23CC4CC(CC(C4)C2)C3)C1 (configuration not stated)	> 265 µM
